Results as given in paper PMC6271340, “Synthesis and Anti-Tumor Activity of Novel Aminomethylated Derivatives of Isoliquiritigenin” (Molecules, 2014).
Where “and” joins values, the source holds several entries; their conditions need not be identical. Equal values may be shown once.

How the values were obtained:
[1] = test system: PC-3, human prostate cancer cells; test: MTT cytotoxicity assay, PC-3; assay type: cell-based; details: 72 h
Procedure: (§1) We examined the cytotoxicity of ISL nitrogenous derivatives against three cancer cell lines (PC-3, MCF-7 and HO-8910) and normal human THP-1 cells using MTT growth inhibition assays. ISL was used as a positive control. […] The IC50 values were all above 100 µM.
(§2) Cytotoxicity was evaluated against four human cell lines (MCF-7 breast cancer, PC-3 prostatic cancer, HO-8910 ovarian cancer, and THP1 normal cells). Briefly, MCF-7, PC-3 and HO-8910 cells were separately plated in 96-well culture plates (1 × 10^5 cells/well). After 24 h incubation, cells were treated with compounds 7–16 (0, 3.13, 6.25, 12.5, 25, 50 and 100 µM) for 72 h. MTT solution (5 mg/mL) was then added to each well. After 4 h incubation, the formazan precipitate was dissolved in […] dimethyl sulfoxide (DMSO), and then the absorbance was measured in an ELISA reader (Thermo Molecular Devices Co., Union City, CA, USA) at 570 nm. The cell viability ratio was calculated by the following formula: Inhibitory ratio (%) = (1 − ODtreated/ODcontrol) × 100%.

[2] = test system: MCF-7, human breast cancer cells; test: MTT cytotoxicity assay, MCF-7; assay type: cell-based; details: MCF7, 72 h
Procedure: as §1, §2

[3] = test system: HO-4980, human ovarian cancer cells; test: MTT cytotoxicity assay, HO-4980 (HO-8910); assay type: cell-based; details: 72 h
Procedure: as §1, §2

[4] = MTT cytotoxicity assay, THP-1 normal cells; assay type: cell-based; details: human, THP-1 cells (called normal cells)
Procedure: as §1, §2

S180 sarcoma cells = test: Anti-tumor activity in S180 tumor-bearing mice; assay type: in vivo; details: S180 tumor-bearing BALB/c mice
Procedure: (§3) Female BALB/c mice (6–8 weeks old, 25 ± 2 g) were obtained from the Third Affiliated Hospital of Harbin Medical University. S180 sarcoma cells were purchased from the Experimental Animal Center of Peking University Health Science Center (Heilongjiang, China). The animals were housed in polypropylene cages and maintained under controlled conditions of 12 h light/12 h dark photoperiod and 55 ± 5% relative humidity at room temperature (28 ± 2 °C). After fed in our facility for 1 week, 40 mice were induced S180 tumor cells according to Wu et al. with some modification. All mice were subcutaneously implanted with 1 × 10^6 cells/mice on the right flank. After inoculation for 24 h, all animals were randomly divided into one untreated control group, one treated positive control group and two treated experimental groups (each group contained 10 mice).
(§4) Group I (untreated control) received orally the same volume of 0.9% normal saline once per day as the treated groups. Group II (treated positive control) received orally ISL at a dosage of 40 mg/kg body weight once per day. Group III (low dose of ISL derivative 15 treatment) received ISL derivative 15 orally (dissolved in 0.2 mL normal saline) at a dosage of 40 mg/kg body weight once per day. Group IV (high-dose of ISL derivative 15 treatment) received ISL derivative 15 orally (dissolved in 0.2 mL normal saline) at a dosage of 80 mg/kg body weight once per day.

[5] = Body-weight change as toxicity parameter in S180 tumor-bearing mice; assay type: in vivo; details: for BWC (%) body-weight change: S180 tumor-bearing BALB/c mice; for Changes in body weight as parameter for toxicity (in words): ISL derivative 15 at 80 or 40 mg/kg, ISL at 40 mg/kg, S180 tumor-bearing mice
Procedure: For comparison, ISL (40 mg/kg) was analyzed as positive control. Changes in body weight were used as parameter for toxicity.
as §3, §4

melting point	Compound	IC50 [1]	IC50 [2]	IC50 [3]	IC50 [4]	TIR (%) tumor inhibitory rate (S180 sarcoma cells; 40 mg/kg orally once per day)	TW (g) x ± SD (tumor weight) (S180 sarcoma cells; 40 mg/kg orally once per day)	TIR (%) tumor inhibitory rate (S180 sarcoma cells; 80 mg/kg orally once per day)	TW (g) x ± SD (tumor weight) (S180 sarcoma cells; 80 mg/kg orally once per day)	BWC (%) body-weight change ([5]; 40 mg/kg orally once per day)	BWC (%) body-weight change ([5]; 80 mg/kg orally once per day)	Changes in body weight as parameter for toxicity (in words) [5]
> 176 °C	CN(C)Cc1c(O)ccc(C(=O)/C=C/c2ccc(O)cc2)c1O [Compound 7, (E)-1-(3-(dimethylaminomethyl)-2,4-dihydroxyphenyl)-3-(4-hydroxyphenyl)prop-2-en-1-one]	> 100 µM	> 100 µM	> 100 µM	> 100 µM							
> 180 °C	O=C(/C=C/c1ccc(O)cc1)c1ccc(O)c(CN2CCOCC2)c1O [Compound 8, (E)-1-(2,4-dihydroxy-3-(morpholinomethyl)phenyl)-3-(4-hydroxyphenyl)prop-2-en-1-one]	48.6 µM	> 100 µM	96.4 µM	> 100 µM							
> 168 °C	O=C(/C=C/c1ccc(O)cc1)c1ccc(O)c(CNC2CCCCC2)c1O [Compound 9, (E)-1-(3-(cyclohexylaminomethyl)-2,4-dihydroxyphenyl)-3-(4-hydroxyphenyl)prop-2-en-1-one]	28.3 µM	73.6 µM	> 100 µM	> 100 µM							
> 180 °C	CC(C)N(Cc1c(O)ccc(C(=O)/C=C/c2ccc(O)cc2)c1O)C(C)C [Compound 10]	> 100 µM	84.6 µM	98.1 µM	> 100 µM							
> 176 °C	CCN(CC)Cc1c(O)ccc(C(=O)/C=C/c2ccc(O)cc2)c1O [Compound 11, (E)-1-(3-((diethylamino)methyl)-2,4-dihydroxyphenyl)-3-(4-hydroxyphenyl)prop-2-en-1-one]	66 µM	> 100 µM	97.3 µM	> 100 µM							
> 175 °C	CCC(C)NCc1c(O)ccc(C(=O)/C=C/c2ccc(O)cc2)c1O (stereo not shown) [Compound 12, (E)-1-(3-((sec-butylamino)methyl)-2,4-dihydroxyphenyl)-3-(4-hydroxyphenyl)prop-2-en-1-one]	57.1 µM	84.8 µM	> 100 µM	> 100 µM							
> 170 °C	CC(C)(C)NCc1c(O)ccc(C(=O)/C=C/c2ccc(O)cc2)c1O [Compound 13, (E)-1-(3-((tert-butylamino)methyl)-2,4-dihydroxyphenyl)-3-(4-hydroxyphenyl)prop-2-en-1-one]	> 100 µM	> 100 µM	> 100 µM	> 100 µM							
> 180 °C	O=C(C=Cc1ccc(O)cc1)c1ccc(O)c(CNCCO)c1O [Compound 14, 1-(2,4-dihydroxy-3-((2-hydroxyethylamino)methyl)phenyl)-3-(4-hydroxyphenyl)propen-1-one]	87.7 µM	66 µM	89 µM	> 100 µM							
	O=C(/C=C/c1ccc(O)cc1)c1ccc(O)c(CN(CCO)CCO)c1O [Compound 15, (E)-1-(3-((bis(2-hydroxyethyl)amino)methyl)-2,4-dihydroxyphenyl)-3-(4-hydroxyphenyl)prop-2-en-1-one]	35.1 µM	42.9 µM	37.9 µM	> 100 µM	39.72%	0.74 ± 0.618 g	71.68%	0.35 ± 0.442 g	+12.8%	+7.8%	Loss of body weight was not found
116.5 to 117.1 °C and 116.5 to 117.4 °C	O=C(/C=C/c1ccc(O)cc1)c1ccc(O)c(CN2CCCC2)c1O [Compound 16]	> 100 µM	81.8 µM	74.9 µM	> 100 µM							
	O=C(/C=C/c1ccc(O)cc1)c1ccc(O)cc1O [ISL, isoliquiritigenin]	36.9 µM	44.1 µM	58.4 µM	> 100 µM	32.44%	0.85 ± 0.369 g			−3.0%		slight weight loss
